PubChem BioAssay AID1963444 (Molecular Pharmacology Branch, DTP, NCI, 2024)
Where “and” joins values, the source holds several entries; their conditions need not be identical. Identical values can stand only once. Each block holds one compound with its values, some of them ahead of it.

Tested on: HSSY-II complex spheroid growth, percent test/control
Assay: Anticancer human tumor HSSY-II cell line growth inhibition [Asc];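 also: spheroids exposed to drug for 7 days before reading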
Details: for viability, T/C: stronger effect = lower value
Procedure, shortened: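 Concentration series start at each agent's clinical Cmax, or at 10 microM when none is established, and drop in half-log steps; agents are applied alone or together to complex spheroids built with HUVEC and hMSC.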

[1] = curve of first compound, second compound 0.01 µM
[2] = curve of first compound, second compound 0.0316 µM
[3] = curve of first compound, second compound 0.1 µM
[4] = curve of first compound, second compound 0.316 µM
[5] = curve of first compound, second compound 1 µM
[6] = second compound 0.01 µM, first compound 0.0316 µM
[7] = second compound 0.01 µM, first compound 0.1 µM
[8] = second compound 0.0316 µM, first compound 0.0316 µM
[9] = second compound 0.0316 µM, first compound 0.1 µM
[10] = second compound 0.1 µM, first compound 0.0316 µM
[11] = second compound 0.1 µM, first compound 0.1 µM
[12] = second compound 0.316 µM, first compound 0.0316 µM
[13] = second compound 0.316 µM, first compound 0.1 µM
[14] = second compound 1 µM, first compound 0.0316 µM
[15] = second compound 1 µM, first compound 0.1 µM
[16] = curve of first compound, second compound 0.03 µM
[17] = curve of first compound, second compound 0.0949 µM
[18] = curve of first compound, second compound 0.3 µM
[19] = curve of first compound, second compound 0.949 µM
[20] = curve of first compound, second compound 3 µM
[21] = second compound 0.03 µM, first compound 0.0316 µM
[22] = second compound 0.03 µM, first compound 0.1 µM
[23] = second compound 0.03 µM, first compound 0.316 µM
[24] = second compound 0.03 µM, first compound 1 µM
[25] = second compound 0.0949 µM, first compound 0.0316 µM
[26] = second compound 0.0949 µM, first compound 0.1 µM
[27] = second compound 0.0949 µM, first compound 0.316 µM
[28] = second compound 0.0949 µM, first compound 1 µM
[29] = second compound 0.3 µM, first compound 0.0316 µM
[30] = second compound 0.3 µM, first compound 0.1 µM
[31] = second compound 0.3 µM, first compound 0.316 µM
[32] = second compound 0.3 µM, first compound 1 µM
[33] = second compound 0.949 µM, first compound 0.0316 µM
[34] = second compound 0.949 µM, first compound 0.1 µM
[35] = second compound 0.949 µM, first compound 0.316 µM
[36] = second compound 0.949 µM, first compound 1 µM
[37] = second compound 3 µM, first compound 0.0316 µM
[38] = second compound 3 µM, first compound 0.1 µM
[39] = second compound 3 µM, first compound 0.316 µM
[40] = second compound 3 µM, first compound 1 µM

SMILES: C=C(F)C(=O)N1CCN(c2nc(OCC3CCCN3C)nc3c2CCN(c2cccc4cccc(Cl)c24)C3)CC1CC#N (configuration not stated) + CNC(C)C(=O)NC1CN(S(=O)(=O)c2cccc(S(=O)(=O)N3CCC4CCC(C(=O)NC(c5ccccc5)c5ccccc5)N4C(=O)C(NC(=O)C(C)NC)C3)c2)CCC2CCC(C(=O)NC(c3ccccc3)c3ccccc3)N2C1=O
IC50 [1]: 618 nM
IC50 [2]: 1030 nM
IC50 [3]: 876 nM
IC50 [4]: 895 nM
IC50 [5]: 650 nM
viability, T/C [6]: 95.8%
viability, T/C [7]: 91%
viability, T/C (second compound 0.01 µM, first compound 0.316 µM): 61.4%
viability, T/C (second compound 0.01 µM, first compound 1 µM): 45.9%
viability, T/C (second compound 0.01 µM, first compound 3.16 µM): 0.97%
viability, T/C (second compound 0.01 µM, first compound 10 µM): 0.1%
viability, T/C [8]: 89.3%
viability, T/C [9]: 80.9%
viability, T/C (second compound 0.0316 µM, first compound 0.316 µM): 68.7%
viability, T/C (second compound 0.0316 µM, first compound 1 µM): 53.9%
viability, T/C (second compound 0.0316 µM, first compound 3.16 µM): 0.93%
viability, T/C (second compound 0.0316 µM, first compound 10 µM): 0.1%
viability, T/C [10]: 90%
viability, T/C [11]: 91.2%
viability, T/C (second compound 0.1 µM, first compound 0.316 µM): 79.3%
viability, T/C (second compound 0.1 µM, first compound 1 µM): 47.6%
viability, T/C (second compound 0.1 µM, first compound 3.16 µM): 0.66%
viability, T/C (second compound 0.1 µM, first compound 10 µM): 0.1%
viability, T/C [12]: 88.5%
viability, T/C [13]: 74.5%
viability, T/C (second compound 0.316 µM, first compound 0.316 µM): 74.4%
viability, T/C (second compound 0.316 µM, first compound 1 µM): 47.8%
viability, T/C (second compound 0.316 µM, first compound 3.16 µM): 0.45%
viability, T/C (second compound 0.316 µM, first compound 10 µM): 0.12%
viability, T/C [14]: 79.6%
viability, T/C [15]: 80.6%
viability, T/C (second compound 1 µM, first compound 0.316 µM): 65.1%
viability, T/C (second compound 1 µM, first compound 1 µM): 41.6%
viability, T/C (second compound 1 µM, first compound 3.16 µM): 0.37%
viability, T/C (second compound 1 µM, first compound 10 µM): 0.19%

SMILES: Cn1ncnc1[C@H]1c2n[nH]c(=O)c3cc(F)cc(c23)N[C@@H]1c1ccc(F)cc1 + CNC(C)C(=O)NC1CN(S(=O)(=O)c2cccc(S(=O)(=O)N3CCC4CCC(C(=O)NC(c5ccccc5)c5ccccc5)N4C(=O)C(NC(=O)C(C)NC)C3)c2)CCC2CCC(C(=O)NC(c3ccccc3)c3ccccc3)N2C1=O
IC50 [1]: > 100 nM
IC50 [2]: 22.5 nM
IC50 [3]: 24.3 nM
IC50 [4]: 15.3 nM
IC50 [5]: 82.5 nM
viability, T/C (second compound 0.01 µM, first compound 0.000316 µM): 86.3%
viability, T/C (second compound 0.01 µM, first compound 0.001 µM): 86%
viability, T/C (second compound 0.01 µM, first compound 0.00316 µM): 87.1%
viability, T/C (second compound 0.01 µM, first compound 0.01 µM): 59.3%
viability, T/C [6]: 43.4%
viability, T/C [7]: 59.6%
viability, T/C (second compound 0.0316 µM, first compound 0.000316 µM): 91.1%
viability, T/C (second compound 0.0316 µM, first compound 0.001 µM): 93.2%
viability, T/C (second compound 0.0316 µM, first compound 0.00316 µM): 80.8%
viability, T/C (second compound 0.0316 µM, first compound 0.01 µM): 60.7%
viability, T/C [8]: 36.8%
viability, T/C [9]: 53.4%
viability, T/C (second compound 0.1 µM, first compound 0.000316 µM): 82.9%
viability, T/C (second compound 0.1 µM, first compound 0.001 µM): 67.6%
viability, T/C (second compound 0.1 µM, first compound 0.00316 µM): 76.1%
viability, T/C (second compound 0.1 µM, first compound 0.01 µM): 58.3%
viability, T/C [10]: 39.6%
viability, T/C [11]: 55.4%
viability, T/C (second compound 0.316 µM, first compound 0.000316 µM): 93.8%
viability, T/C (second compound 0.316 µM, first compound 0.001 µM): 92.5%
viability, T/C (second compound 0.316 µM, first compound 0.00316 µM): 80.1%
viability, T/C (second compound 0.316 µM, first compound 0.01 µM): 53%
viability, T/C [12]: 37.7%
viability, T/C [13]: 54.4%
viability, T/C (second compound 1 µM, first compound 0.000316 µM): 89.6%
viability, T/C (second compound 1 µM, first compound 0.001 µM): 84.5%
viability, T/C (second compound 1 µM, first compound 0.00316 µM): 82%
viability, T/C (second compound 1 µM, first compound 0.01 µM): 72.2%
viability, T/C [14]: 56.4%
viability, T/C [15]: 48.9%

SMILES: COc1c(OCCCN2CCOCC2)ccc2c3n(c(=NC(=O)c4cnc(N)nc4)nc12)CCN3 + CCN1C(C(=O)NC23CCC(C(=O)O)(CC2)CC3)C(c2cccc(Cl)c2F)C2(C(=O)Nc3cc(Cl)ccc32)C12CCCCC2
IC50 [16]: 26.9 nM
IC50 [17]: 3.62 nM
IC50 [18]: < 3.16 nM
IC50 [19]: < 3.16 nM
IC50 [20]: < 3.16 nM
viability, T/C (second compound 0.03 µM, first compound 0.00316 µM): 83.3%
viability, T/C (second compound 0.03 µM, first compound 0.01 µM): 70.4%
viability, T/C [21]: 42.1%
viability, T/C [22]: 32.5%
viability, T/C [23]: 21%
viability, T/C [24]: 8.92%
viability, T/C (second compound 0.0949 µM, first compound 0.00316 µM): 50.1%
viability, T/C (second compound 0.0949 µM, first compound 0.01 µM): 44.8%
viability, T/C [25]: 27.9%
viability, T/C [26]: 18.8%
viability, T/C [27]: 11.1%
viability, T/C [28]: 5.81%
viability, T/C (second compound 0.3 µM, first compound 0.00316 µM): 27.8%
viability, T/C (second compound 0.3 µM, first compound 0.01 µM): 18.8%
viability, T/C [29]: 13.5%
viability, T/C [30]: 9.78%
viability, T/C [31]: 5.2%
viability, T/C [32]: 1.51%
viability, T/C (second compound 0.949 µM, first compound 0.00316 µM): 5.84%
viability, T/C (second compound 0.949 µM, first compound 0.01 µM): 4.85%
viability, T/C [33]: 3.58%
viability, T/C [34]: 2.14%
viability, T/C [35]: 1.08%
viability, T/C [36]: 0.52%
viability, T/C (second compound 3 µM, first compound 0.00316 µM): 1.52%
viability, T/C (second compound 3 µM, first compound 0.01 µM): 1.05%
viability, T/C [37]: 0.78%
viability, T/C [38]: 0.45%
viability, T/C [39]: 0.29%
viability, T/C [40]: 0.25%

The next lines start with results.

IC50 (curve of compound): > 10000 nM and 8850 nM
SMILES: C#Cc1c(F)ccc2cc(O)cc(-c3ncc4c(N5CC6CCC(C5)N6)nc(OCC56CCCN5CC(F)C6)nc4c3F)c12 (configuration not stated)
viability, T/C (compound 0.0316 µM): 97.9% and 106% and 112%
viability, T/C (compound 0.1 µM): 101% and 94.9% and 106%
viability, T/C (compound 0.316 µM): 97.4% and 92.7% and 94%
viability, T/C (compound 1 µM): 105% and 102% and 90.2%
viability, T/C (compound 3.16 µM): 91.3% and 93.7% and 92.3%
viability, T/C (compound 10 µM): 74.2% and 53.3% and 44.5%

IC50 [16]: 5960 nM
IC50 [17]: 3250 nM
IC50 [18]: < 31.6 nM
IC50 [19]: < 31.6 nM
IC50 [20]: < 31.6 nM
SMILES: C#Cc1c(F)ccc2cc(O)cc(-c3ncc4c(N5CC6CCC(C5)N6)nc(OCC56CCCN5CC(F)C6)nc4c3F)c12 (configuration not stated) + CCN1C(C(=O)NC23CCC(C(=O)O)(CC2)CC3)C(c2cccc(Cl)c2F)C2(C(=O)Nc3cc(Cl)ccc32)C12CCCCC2
viability, T/C [21]: 91.6%
viability, T/C [22]: 96.6%
viability, T/C [23]: 91.1%
viability, T/C [24]: 90.7%
viability, T/C (second compound 0.03 µM, first compound 3.16 µM): 80.8%
viability, T/C (second compound 0.03 µM, first compound 10 µM): 24.9%
viability, T/C [25]: 52.4%
viability, T/C [26]: 62.3%
viability, T/C [27]: 65.7%
viability, T/C [28]: 59%
viability, T/C (second compound 0.0949 µM, first compound 3.16 µM): 50.6%
viability, T/C (second compound 0.0949 µM, first compound 10 µM): 9.38%
viability, T/C [29]: 24.8%
viability, T/C [30]: 27.5%
viability, T/C [31]: 26%
viability, T/C [32]: 20.6%
viability, T/C (second compound 0.3 µM, first compound 3.16 µM): 20.2%
viability, T/C (second compound 0.3 µM, first compound 10 µM): 0.94%
viability, T/C [33]: 7.03%
viability, T/C [34]: 7.37%
viability, T/C [35]: 6.79%
viability, T/C [36]: 5.65%
viability, T/C (second compound 0.949 µM, first compound 3.16 µM): 5.67%
viability, T/C (second compound 0.949 µM, first compound 10 µM): 0.22%
viability, T/C [37]: 2.13%
viability, T/C [38]: 2.33%
viability, T/C [39]: 2.2%
viability, T/C [40]: 1.74%
viability, T/C (second compound 3 µM, first compound 3.16 µM): 1.34%
viability, T/C (second compound 3 µM, first compound 10 µM): 0.27%
